From patent publication US20260070887A1 (Shenzhen Zhongge Biological Technology Co., Ltd., priority 2022, published 2026) come the findings set out here.

SMILES strings stand for the structures. Like-named read-outs stand apart in the source and are kept apart here. A value given as a limit tells only on which side of the number the result lay.

Experiment [1] concerns the target KIF18A (Homo sapiens (Human), UniProt Q8NI77). The experiment in a line: KIF18A ATPase activity under tubulin stimulation (ADP-Glo assay). The format is biochemical. As to conditions: KIF18A 30 nM, ATP 150 μM, pig microtubules. The protocol: This experiment assesses the inhibitory effect of the compounds of the present disclosure on the KIF18A target according to the IC50 values by measuring the KIF18A ATPase activity under tubulin stimulation with the presence of the compounds.
• 1. Preparation of 30 mL of reaction buffer: • (1) 450 μL 1M Tris-HCl (pH=7.5)+300 μL 1M MgCl2+30 μL 10% Pluronic F-68 (ThermoFisher, 24040032-100 ml); • (2) adjusting pH to 7.5, and adding water to adjust the volume to 30 mL. • 2. Preparation of a 5 mg/mL pig microtubule (Microtubules; MT) (Cytoskeleton Inc, MT002) stock solution: • (1) 10 mL PM buffer=150 μL 1 M PIPES (pH 7.0)+20 μL 0.5 mM MgCl2+100 μL 2 mM Taxol (Cytoskeleton Inc, TXD01)+9730 μL water. • (2) MT ([…]): Adding 100 μL PM buffer to prepare a 5 mg/mL stock solution. Keeping the MT (Cytoskeleton Inc, MT002) at room temperature for 10-15 minutes, gently mixing and storing same at −80° C. • 3. Preparation of 2 mL of kinase buffer: 2 mL reaction buffer+1 μL 2 mM Taxol (Cytoskeleton Inc, TXD01)+12 μL 5 mg/mL MT (Cytoskeleton Inc, MT002). • 4. Preparation of 2×KIF18A (30 nM) (ChemPartner, CPB-P22-31645) working solution: 2.4 μL 10 μM KIF18A (ChemPartner, CPB-P22-31645)+800 μL 1× kinase buffer. • 5. Preparation of 2×ATP (150 μM) (Promega, G9101) working solution: 12 μL 10 mM ATP+800 μL 1× kinase buffer. • 6. 25 nL of compound was transferred to a 384-well plate using Echo650. • 7. 2.5 μL of 2×KIF18A from Step 4 (final concentration of 30 nM) was added to the 384-well plate and the plate was incubated at 25° C. for 15 minutes. • 8. 2.5 μL of 2×ATP from Step 5 (final concentration of 150 μM) was added to the 384-well plate and the plate was incubated at 25° C. for 15 minutes. • 9. 5 μL ADP-Glo™ Reagent (Promega, G9101) was added to the 384-well plate and the plate was incubated at 25° C. for 40 minutes. • 10. 10 μL of kinase detection reagent (Promega, G9101) was added to the 384-well plate and the plate was incubated at 25° C. for 40 minutes. • 11. Luminescence values were measured using the EnVision Xcite Multilabel Reader (PerkinElmer, 2105-0020).
Background: ADP-Glo turns the ADP formed in a reaction into a luminescent signal.

In experiment [2] the test system is OVCAR-3 cells. The experiment in a line: OVCAR-3 cell proliferation (Cell Titer-Glo, 10 days). Type of experiment: cell-based, human. The protocol: The inhibitory effect on the KIF18A target by the compounds of the present disclosure was evaluated by testing the inhibitory effect on proliferation of OVCAR-3 cells by the compounds of the present disclosure.
The following method was used to determine the effect of the compounds of the present disclosure on the proliferation of human ovarian cancer cells Ovcar-3 (HTB-161, ATCC). Cells were cultured in RPMI-1640 complete medium containing 20% fetal bovine serum, 0.01 mg/mL bovine insulin, 100 U penicillin, and 100 μg/mL streptomycin. The Promega kit Cell Titer-Glo (Cat. No. G7572) was used in this method for test.
For specific steps, reference was made to the kit instructions, and the procedure was outlined below: Test compounds were dissolved in DMSO to prepare a 10 mM stock solution, which was diluted at the predetermined test concentrations, and the test compounds at different concentrations were added to a 384-well cell test plate using ECHO. In the plate pre-added with the test compounds, 400 OVCAR-3 cells in the logarithmic growth phase were seeded per well, ensuring the final concentration of the test compounds in the reaction system ranged between 0.12 nM and 10 μM. The co-culture was maintained in a cell culture incubator for 10 days. Before testing, the cell culture plate was equilibrated for 10 minutes at room temperature, 25 μL of Cell Titer-Glo was added to each well, and the mixture was shaken and mixed well and let stand for 5 minutes. The luminescence values for samples in various wells were read using a microplate reader in Luminescence mode.
The percentage of inhibition of cell proliferation by the test compound at each concentration was calculated by comparing with the values of the control group (0.1% DMSO). The IC50 values of the compounds were obtained by concentration-inhibition rate nonlinear regression analysis of the test compounds using GraphPad Prism 9.
(Cellular ATP, detected with luciferase, serves as a proxy for viable cell number.)

KIF18A, sequence (Q8NI77 whole entry): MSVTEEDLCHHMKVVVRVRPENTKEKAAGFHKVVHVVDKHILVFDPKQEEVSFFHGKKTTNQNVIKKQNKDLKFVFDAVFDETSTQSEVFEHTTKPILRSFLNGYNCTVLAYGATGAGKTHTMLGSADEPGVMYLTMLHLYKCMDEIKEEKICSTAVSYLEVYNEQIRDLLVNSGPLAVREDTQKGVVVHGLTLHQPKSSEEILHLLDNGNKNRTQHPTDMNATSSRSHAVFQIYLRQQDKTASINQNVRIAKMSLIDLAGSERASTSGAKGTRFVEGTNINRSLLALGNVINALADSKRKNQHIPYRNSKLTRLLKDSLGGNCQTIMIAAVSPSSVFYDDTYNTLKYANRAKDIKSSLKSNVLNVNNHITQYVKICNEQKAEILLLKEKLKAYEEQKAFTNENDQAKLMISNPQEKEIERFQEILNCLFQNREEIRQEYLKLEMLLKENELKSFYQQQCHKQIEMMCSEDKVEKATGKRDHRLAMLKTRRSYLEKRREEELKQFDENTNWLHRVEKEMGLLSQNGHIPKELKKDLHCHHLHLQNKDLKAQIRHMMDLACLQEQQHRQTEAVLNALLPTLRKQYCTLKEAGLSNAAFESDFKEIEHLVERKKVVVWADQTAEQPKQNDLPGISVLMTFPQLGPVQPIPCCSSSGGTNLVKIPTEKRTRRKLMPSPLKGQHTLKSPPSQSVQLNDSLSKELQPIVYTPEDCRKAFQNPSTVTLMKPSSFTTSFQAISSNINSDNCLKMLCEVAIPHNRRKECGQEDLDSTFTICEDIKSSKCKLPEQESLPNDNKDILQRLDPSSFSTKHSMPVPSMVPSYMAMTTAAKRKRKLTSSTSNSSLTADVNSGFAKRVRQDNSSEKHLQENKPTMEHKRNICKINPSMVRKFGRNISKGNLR
KIF18A, sequence (P02550 whole entry partner): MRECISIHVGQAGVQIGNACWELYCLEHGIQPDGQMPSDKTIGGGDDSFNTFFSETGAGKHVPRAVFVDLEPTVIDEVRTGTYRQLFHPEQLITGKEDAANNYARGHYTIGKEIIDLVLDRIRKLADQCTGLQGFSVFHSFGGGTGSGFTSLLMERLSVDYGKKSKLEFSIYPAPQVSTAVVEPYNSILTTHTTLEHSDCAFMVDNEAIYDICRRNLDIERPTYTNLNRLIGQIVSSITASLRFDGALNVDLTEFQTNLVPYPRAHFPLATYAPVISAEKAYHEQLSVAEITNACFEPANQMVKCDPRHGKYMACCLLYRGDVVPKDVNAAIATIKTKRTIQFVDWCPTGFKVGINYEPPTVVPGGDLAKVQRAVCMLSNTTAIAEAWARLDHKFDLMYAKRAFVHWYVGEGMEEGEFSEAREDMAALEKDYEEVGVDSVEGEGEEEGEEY
KIF18A, sequence (P02554 whole entry partner): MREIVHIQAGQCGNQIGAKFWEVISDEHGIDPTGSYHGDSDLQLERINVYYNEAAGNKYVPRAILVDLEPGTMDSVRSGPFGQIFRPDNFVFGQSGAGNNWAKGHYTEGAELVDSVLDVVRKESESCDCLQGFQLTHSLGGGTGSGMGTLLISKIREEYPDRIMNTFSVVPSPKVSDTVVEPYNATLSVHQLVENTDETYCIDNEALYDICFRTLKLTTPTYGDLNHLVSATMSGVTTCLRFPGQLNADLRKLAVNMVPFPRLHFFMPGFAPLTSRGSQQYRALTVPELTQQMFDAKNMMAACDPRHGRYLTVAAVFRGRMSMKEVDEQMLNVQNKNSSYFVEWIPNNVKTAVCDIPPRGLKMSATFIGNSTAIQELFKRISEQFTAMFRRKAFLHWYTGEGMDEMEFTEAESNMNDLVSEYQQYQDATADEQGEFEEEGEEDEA

Take `COC1c2cc3c(NC(=O)c4ccc(NS(=O)(=O)CCO)cc4N4CCC5(CC4)CC5)cccc3n2CCC1(F)F` (single isomer, unassigned) [Example 340-P1]: the IC50 in experiment [1] and in experiment [2] was 0.05 to 0.5 µM in each case.

Take `CCS(=O)(=O)Nc1ccc(C(=O)Nc2cccc3c2cc2n3CCCC2O)c(N2CCC3(CC2)CC3)c1` (single isomer, unassigned) [Example 373-P1, 4-(ethylsulfonamido)-N-(9-hydroxy-6,7,8,9-tetrahydropyridino[1,2-a]indol-1-yl)-2-(6-azaspiro[2.5]oct-6-yl)benzamide]: the IC50 in experiment [1] fell in the range of 0.05 to 0.5 µM; in experiment [2] (Homo sapiens, OVCAR-3, 240 h), 0.05 to 0.5 µM.

As to `CCS(=O)(=O)Nc1ccc(C(=O)Nc2cccc3c2cc2n3CCCC2O)c(N2CCC3(CC2)CC3)c1` (single isomer, unassigned) [Example 373-P2, 4-(ethylsulfonamido)-N-(9-hydroxy-6,7,8,9-tetrahydropyridino[1,2-a]indol-1-yl)-2-(6-azaspiro[2.5]oct-6-yl)benzamide], the IC50 in experiment [1] and in experiment [2] was 0.05 to 0.5 µM throughout.

`CC1OCCn2c1cc1c(NC(=O)c3ccc(NS(=O)(=O)CCO)cc3N3CCC4(CC3)CC4)cccc12` (stereo not drawn) [Compound 311-P1, 4-((2-hydroxyethyl)sulfonamido)-N-(1-methyl-3,4-dihydro-1H-[1,4]oxazinyl[4,3-a]indol-9-yl)-2-(6-azaspiro[2.5]oct-6-yl)benzamide]: the IC50 in experiment [1] is no more than 0.05 µM; in experiment [2] it was 0.05 to 0.5 µM.

Take `CC1OCCn2c1cc1c(NC(=O)c3ccc(NS(=O)(=O)CCO)cc3N3CCC4(CC3)CC4)cccc12` (stereo not drawn) [Compound 311-P2, 4-((2-hydroxyethyl)sulfonamido)-N-(1-methyl-3,4-dihydro-1H-[1,4]oxazinyl[4,3-a]indol-9-yl)-2-(6-azaspiro[2.5]oct-6-yl)benzamide]: the IC50 in experiment [1] and in experiment [2] was no more than 0.05 µM throughout.

`CCS(=O)(=O)Nc1ccc(C(=O)Nc2cccc3c2cc2n3CCC(F)(F)C2O)c(N2CCC3(CC2)CC3)c1` (stereo not drawn) [Compound 382, N-(8,8-difluoro-9-hydroxy-6,7,8,9-tetrahydropyridino[1,2-a]indol-1-yl)-4-ethyl sulfonamido-2-(6-azaspiro[2.5]octan-6-yl)benzamide]: the 50% inhibitory concentration (IC50) in experiment [1] and in experiment [2] was no more than 0.05 µM throughout.

Turning to `O=C(Nc1cccc2c1cc1n2CCC(F)(F)C1O)c1ccc(NS(=O)(=O)CCO)cc1N1CCC(=C(F)F)CC1` (stereo not drawn) [Compound 383, N-(8,8-difluoro-9-hydroxy-6,7,8,9-tetrahydropyridino[1,2-a]indol-1-yl)-2-(4-(difluoromethylene)piperidin-1-yl)-4-((2-hydroxyethyl)sulfonamido)benzamide], the IC50 in experiment [1] is no more than 0.05 µM; in experiment [2] (Homo sapiens, OVCAR-3, 240 h) it was no more than 0.05 µM.

With `O=C(Nc1cccc2c1cc1n2CCC(F)(F)C1O)c1ccc(NS(=O)(=O)CCO)cc1N1CCC2(CC1)CC2` (stereo not drawn) [Compound 384, N-(8,8-difluoro-9-hydroxy-6,7,8,9-tetrahydropyridino[1,2-a]indol-1-yl)-4-((2-hydroxyethyl)sulfonamido)-2-(6-azaspiro[2.5]oct-6-yl)benzamide], the IC50 was 0.05 to 0.5 µM in experiment [1] and no more than 0.05 µM in experiment [2] (Homo sapiens, OVCAR-3, 240 h).

For the compound `O=C(Nc1ccc2c(c1)N1CCC(F)(F)CC1CO2)c1ccc(NS(=O)(=O)CCO)cc1N1CCC(=C(F)F)CC1` (stereo not drawn) [Compound 399], the IC50 in experiment [1] was 0.05 to 0.5 µM; in experiment [2] (Homo sapiens, OVCAR-3, 240 h) it was 0.5 to 5 µM.

Take `O=C(Nc1cccc2c1OCC1CC(F)(F)CCN21)c1ccc(NS(=O)(=O)CCO)cc1N1CCC2(CC1)CC2` (stereo not drawn) [Compound 400, N-(8,8-difluoro-6,6a,7,8,9,10-hexahydrobenzo[b]pyrido[1,2-d][1,4]oxazin-4-yl)-4-((2-hydroxyethyl)sulfonamido)-2-(6-azaspiro[2.5]oct-6-yl)benzamide]: the IC50 in experiment [1] is no more than 0.05 µM; in experiment [2] (Homo sapiens, OVCAR-3, 240 h), 0.05 to 0.5 µM.

As for `O=C(Nc1ccnc2c1cc1n2CCOC1)c1ccc(NS(=O)(=O)CCO)cc1N1CCC(=C(F)F)CC1` [Compound 401, 2-(4-(difluoromethylene)piperidin-1-yl)-N-(8,9-dihydro-6H-pyrido[3′,2′:4,5]pyrrolo[2,1-c][1,4]oxazin-4-yl)-4-((2-hydroxyethyl)sulfonamido)benzamide], the IC50 in experiment [1] was no more than 0.05 µM; in experiment [2] (Homo sapiens, OVCAR-3, 240 h) it was 0.05 to 0.5 µM.

As to `O=C(Nc1cccc2c1CC1COCCN21)c1ccc(NS(=O)(=O)CCO)cc1N1CCC2(CC1)CC2` (stereo not drawn) [Compound 411, 4-((2-hydroxyethyl)sulfonamido)-2-(6-azaspiro[2.5]oct-6-yl)-N-(3,4,10,10-tetrahydro-1H-[1,4]oxazino[4,3-a]indol-9-yl)benzamide], the IC50 in experiment [1] and in experiment [2] was 0.05 to 0.5 µM in each case.

Take `COC1c2cc3c(NC(=O)c4ccc(NS(=O)(=O)CCO)cc4N4CCC5(CC4)CC5)ccc(C#N)c3n2CCC1(F)F` (stereo not drawn) [Compound 428, N-(4-cyano-8,8-difluoro-9-methoxy-6,7,8,9-tetrahydropyridino[1,2-a]indol-1-yl)-4-((2-hydroxyethyl)sulfonamido)-2-(6-azaspiro[2.5]oct-6-yl)benzamide]: the IC50 was in the range of 0.05 to 0.5 µM in experiment [1] and 0.05 to 0.5 µM in experiment [2] (Homo sapiens, OVCAR-3, 240 h).

`O=C(Nc1cccc2c1CCN2CC1CC1)c1ccc(NS(=O)(=O)CCO)cc1N1CCC2(CC1)CC2` [Example 5, N-(1-(cyclopropylmethyl)indoline-4-(2-hydroxyethyl)sulfonamido)-2-(6-azaspiro[2.5]octan-6-yl)benzamide]: the values for the IC50 in experiment [1] and in experiment [2] were no more than 0.05 µM and 0.05 to 0.5 µM, respectively.

Turning to `O=C(Nc1cccc2c1cc1n2CCC(F)(F)C1)c1ccc(NS(=O)(=O)CCO)cc1N1CCC2(CC1)CC2` [Example 128, 2-(6-azaspiro[2.5]oct-6-yl)-N-(8,8-difluoro-6,7,8,9-tetrahydropyridino[1,2-a]indol-1-yl)-4-{[(2-hydroxyethyl)sulfonamide]}benzamide], the IC50 in experiment [1] and in experiment [2] was no more than 0.05 µM each time.

Take `O=C(Nc1cccc2c1CC1CCCN21)c1ccc(NS(=O)(=O)CCO)cc1N1CCC2(CC1)CC2` (stereo not drawn) [Example 130, 4-((2-hydroxyethyl)sulfonamide)-2-(6-azaspiro[2.5]octan-6-yl)-N-(2,3,9,9a-tetrahydro-1H-pyrrolo[1,2a]indol-8-yl)benzamide]: the values for the IC50 in experiment [1] and in experiment [2] were no more than 0.05 µM and 0.05 to 0.5 µM, respectively.

On to `CC(C)(O)Cn1ccc2c(NC(=O)c3ccc(NS(=O)(=O)CCO)cc3N3CCC4(CC3)CC4)cccc21` [Example 279, N-(1-(2-hydroxy-2-methylpropyl)-1H-indol-4-yl)-4-((2-hydroxyethyl)sulfonamido)-2-(6-azaspiro[2.5]oct-6-yl)benzamide], for which the IC50 is 0.05 to 0.5 µM in experiment [1] and 0.5 to 5 µM in experiment [2] (Homo sapiens, OVCAR-3, 240 h).

Take `O=C(Nc1cccc2c1ccn2CC1(F)CC1)c1ccc(NS(=O)(=O)CCO)cc1N1CCC2(CC1)CC2` [Example 283, N-(1-((1-fluorocyclopropyl)methyl)-1H-indol-4-yl)-4-((2-hydroxyethyl)sulfonamido)-2-(6-azaspiro[2.5]oct-6-yl)benzamide]: the IC50 in experiment [1] is 0.05 to 0.5 µM; in experiment [2] (Homo sapiens, OVCAR-3, 240 h) it was 0.05 to 0.5 µM.

Usually IC50 stands for the concentration that inhibits the measured activity by half. A lower IC50 goes with greater potency.
